Test results from patent publication US20130203097A1 (priority 2010, published 2013).
*: point of attachment. pNA = O=[N+]([O-])c1ccc(N*)cc1; MeOSuc = COC(=O)CCC(=O)*

How the values were obtained:
[1] = test system: other species of Legionella; details: cited from earlier work
Pseudomonas aeruginosa = details: cited from earlier work
[2] = test system: strains of Legionella pneumophila; details: out of 283 strains of Legionella pneumophila tested; cited from earlier work
[3] = test system: CC(=O)N[C@@H](CO)C(=O)N[C@@H](CCCCN)C(=O)NCC(=O)N[C@@H](Cc1ccc2ccc3cccc4ccc1c2c34)C(=O)N[C@@H](Cc1ccc(O)c([N+](=O)[O-])c1)C(=O)NCC(=O)NCC(=O)N[C@@H](CCCCN)C(N)=O; test: purified protein, by the assay type; details: pH 7.0; 37.0 °C

MeOSuc-Arg-Pro-Tyr-pNA [Compound S-2586]
species that responded positively [1]: 2
Pseudomonas aeruginosa that responded positively (Pseudomonas aeruginosa): 22
strains that degraded the substrate [2]: 282

Msp (Legionella pneumophila)
Km [3]: 6.8 ± 0.6 µM
kcat [3]: 23.9 ± 0.7 s⁻¹
